Assay results taken from patent US5464821A, “Small peptidic compounds useful for the treatment of glaucoma” (Carlbiotech, Ltd., priority 1991, dated 1995).
Residues, ends and D or L forms follow the SMILES beside them. *: point of attachment. OBn = c1ccc(CO*)cc1; Acm = CC(=O)NC*

What was measured:
[1] = tested on: stress induced intraocular pressure in the rabbit's eye; test: stress induced antagonizing model, intraocular pressure in the rabbit's eye; format: in vivo; parameters: key to Antagonizing Effect: Active: the pressure increase following 10 stress units for the treated group on average was found to be smaller than 2 mm Hg and to be significantly less compared to untreated controls; settings: for Antagonizing Effect: 1% solution in 0.9% aqueous NaCl, 60 μl topically 3 times daily over 5 days, following 10 stress units
Protocol: The main feature of this clinical model is a stress induced elevation of the IOP in the rabbit eye above the initial and normal value. The stress is exerted, i.e. applied, in the form of measuring the pressure (at 12 hour intervals) with the help of a SHIOTZ-Tonometer, which is loaded with 7.5 grams. The pressure first begins to rise after 5 measurements, i.e. after 21/2 days, and reaches a maximum after 10 measurements, i.e. after 5 days.
Known antiglaucoma drugs lower the intraocular pressure when they are applied after the intraocular pressure (IOP) has clearly been established,in spite of the fact that the trauma, i.e. the measuring of the pressure, continued during the treatment.
Antagonizing of the Intraocular Pressure in the stressed Rabbit's Eyes Model
The compound was a freeze-dried powder, and was applied to the rabbit eye as a powder, or as drops, dissolved in 0.9% NaCl aqueous solution. Negative control was 0.9% NaCl solution in water.
(§1) Peptides were tested for the intraocular pressure lowering or antagonizing effects in the water load model described above or the stress induced antagonizing model respectively, in groups of four to ten rabbits, as described below. The tests were performed on homogeneous groups of randomly sexed rabbits, weight 2.5-3.0 kg, but of different breeds in various laboratories several places in the world. Thus, in some cases intergroup variations were found in the absolute starting pressure of the rabbit's eyes.
(§2) In the case of the water load model structure, each rabbit served as its own reference control for the duration of the experiment, and in the case of the stress induced antagonistic model, each group of rabbits served as reference control, at the beginning and end of 10 stress units. Usually, the peptides were dissolved in plain isotonic saline, but in one case in the waterload model, a TRIS-buffer at physiological pH was included.
The peptides were applied topically as a 1% solution in 0.9% aqueous NaCl in aliquots of 60 μl 3 times daily over a period of 5 days.

[2] = tested on: water load induced hypertension in the rabbit's eye; test: water load model, intraocular pressure in the rabbit's eye; format: in vivo
Protocol: The findings of IOP lowering effects in the stress induced rabbit model have been confirmed and further studied by using another elevated eye pressure rabbit model. In this model, the widely applied water load model, elevation of the intraocular pressure is achieved by injecting a large volume of sterile water intraperitoneally into the rabbits. Following onset of eye drop treatment in one eye while the other eye is treated with saline placebo, the intraocular pressure of both eyes is then measured at various intervals and the .pressure difference between the eyes is taken as an expresion of the pharmaceutical effect.
The studies utilized a "water load" animal model.
Thirty minutes before drug solution instillation, rabbits were injected intraperitonally with 60 ml/kg of sterile distilled water for injection (30° C.) spiked with an antibiotic mixture (Sigma P9032).
At time zero, 50 μl of a drug solution was instilled to one eye and an equal volume of a saline solution was instilled to the other eye. The IOP in each eye was monitored at the time points indicated. The change in IOP at each time point is computed by subtracting the IOP in the dosed eye from that in the undosed-eye.
From these plots were assessed the maximal IOP effect, the time to reach this and the time for returning to a zero or insignificant level of IOP lowering effect. These figures were taken as a measure of potency and duration of effect.
as §1, §2
50 μl of a 1% solution of the peptides in 0.9% aqueous saline were applied in one eye and 50 μl of 0.9% aqueous saline in the other eye 30 minutes after the intraperitonal water loading and IOP were measured in both eyes for 2 hours and the difference calculated.
50 μl of 1% solution of the peptides in 0.9% isotonic saline containing TRIS-buffer pH 7.4 was applied in one eye and 50 μl of 0.9% isotonic saline containing TRIS-buffer. pH 7.4 in the other eye 30 minutes after the interperitonal water loading and intraocular pressure was measured in both eyes for 2 hours and the difference calculated.

[3] = from PCT/DK90/00322; cited from earlier work
[4] = tested on: stress induced intraocular pressure in the rabbit's eye; settings: earlier work in the laboratory of one of the inventors; cited from earlier work
[5] = single dose 50 μl of 1% solution in 0.9% aqueous saline in one eye, saline in the other, IOP measured for 2 hours

CC(=O)NCC(=O)NCC(=O)N[C@H](C(N)=O)C(C)C [Ac-Gly-Gly-Val-NH2] (Ac-Gly-Gly-Val-NH2)
Antagonizing Effect [1]: Active | Pressure Lowering Effect [2, 5]: Active

CC(C)[C@H](NC(=O)CNC(=O)CNC(=O)[C@@H](N)CC(N)=O)C(N)=O [H-Asn-Gly-Gly-Val-NH2] (H-NGGV-NH2)
Antagonizing Effect [1]: Active

CC(C)C[C@H](NC(=O)[C@@H](N)CC(N)=O)C(=O)NCC(=O)N[C@@H](Cc1ccc(O)cc1)C(N)=O [H-Asn-Leu-Gly-Tyr-NH2] (H-NLGY-NH2)
Antagonizing Effect [1]: Active

CC(C)C[C@H](NC(=O)[C@@H](N)CC(N)=O)C(=O)NCC(=O)N[C@H](C(N)=O)C(C)C [H-Asn-Leu-Gly-Val-NH2] (H-NLGV-NH2)
Antagonizing Effect [1]: Active

CCOC(=O)[C@@H](NC(=O)CNC(=O)CN)C(C)C [H-Gly-Gly-Val-OEt] (H-Gly-Gly-Val-OEt)
Antagonizing Effect [1]: Active

CC(C)[C@H](NC(=O)CN)C(=O)OCc1ccccc1 [H-Gly-Val-OBzl, Glycyl-L-Valine-Benzylester] (H-Gly-Val-OBn)
Antagonizing Effect [1]: Active | antagonizing effect / efficacy in the stress induced rabbit model (in words) ([1]; stress induced model): good efficacy | Pressure Lowering Effect [2, 5]: Active

CC(C)[C@H](NC(=O)CN)C(=O)N[C@@H](Cc1ccc(O)cc1)C(N)=O [H-Gly-Val-Tyr-NH2] (H-Gly-Val-Tyr-NH2)
Antagonizing Effect [1]: Active | Pressure Lowering Effect [2, 5]: Active

CC(C)[C@H](NC(=O)CCN)C(=O)OCc1ccccc1 [H-β-Ala-Val-OBzl, β-alanyl L-valine Benzylester]
Pressure Lowering Effect ([2]; single dose 50 μl of 1% solution in 0.9% isotonic saline containing TRIS-buffer pH 7.4, IOP measured for 2 hours): Active

CC(=O)NCSC[C@H](NC(=O)[C@@H](NC(=O)CNC(=O)[C@H](CC(C)C)NC(=O)[C@@H](N)CC(N)=O)C(C)C)C(N)=O [HAsnLeuGlyValCys(Acm)NH2, H-Asn-Leu-Gly-Val-Cys(Acm)-NH2] (H-NLGVC(Acm)-NH2)
penetration of the sclera of the eye [3]: penetrate the sclera of the eye

CC[C@@H]1C(=O)OC[C@@H]1Cc1cncn1C [pilocarpine, reference compound]
pressure lowering effect in the water load model (in words) ([2]; 2.6% solution, positive reference control): gave a similar response to some of the preferred compounds

CC(C)(C)NC[C@H](O)COc1nsnc1N1CCOCC1 [timolol]
pressure lowering effect of known drugs in the stress model [4]: pressure lowering effect
